Experimental data published in US10323031B2, “Pesticidally active tetracyclic derivatives with sulfur containing substituents” (Syngenta Participations AG, priority 2015, dated 2019).

Tests used:
Type in all cases: in vivo
[1] = system: Plutella xylostella (Diamond Back Moth); experiment: Plutella xylostella larvae on artificial diet (Example B7); conditions: 120 h, application rate of 200 ppm, L2 larvae, 5 days after infestation, read-out: effect in at least one of the two categories (mortality or growth inhibition)
Method: Plutella xylostella (Diamond Back Moth)
(§1) 24-well microtiter plates with artificial diet were treated with aqueous test solutions prepared from 10,000 ppm DMSO stock solutions by pipetting. After drying, the plates were infested with L2 larvae (10 to 15 per well). The samples were assessed for mortality and growth inhibition in comparison to untreated samples 5 days after infestation.

[2] = system: Diabrotica Balteata (Corn root worm); experiment: Diabrotica balteata larvae on maize sprouts (Example B2); conditions: 96 h, application rate of 200 ppm, L2 larvae, 4 days after infestation, read-out: effect in at least one of the two categories (mortality or growth inhibition)
Method: Diabrotica Balteata (Corn root worm)
as §1, with “Maize sprouts placed onto an agar layer in 24-well” for “24-well”, “plates” for “plates with artificial diet”, “spraying.” for “pipetting.”, “(6” for “(10”, “10” for “15”, “4” for “5”

[3] = system: Euschistus heros (Neotropical Brown Stink Bug); experiment: Euschistus heros nymphs on soybean leaves (Example B3); conditions: 120 h, application rate of 200 ppm, N2 nymphs, 5 days after infestation, read-out: effect in at least one of the two categories (mortality or growth inhibition)
Method: Euschistus heros (Neotropical Brown Stink Bug)
Soybean leaves on agar in 24-well microtiter plates were sprayed with aqueous test solutions prepared from 10,000 ppm DMSO stock solutions. After drying the leaves were infested with N2 nymphs. The samples were assessed for mortality and growth inhibition in comparison to untreated samples 5 days after infestation.

[4] = system: Spodoptera littoralis (Egyptian Cotton Leaf Worm); experiment: Spodoptera littoralis on sprayed cotton leaf discs (Example B8); conditions: foliar, 72 h, application rate of 200 ppm, L1 larvae, 3 days after infestation, read-out: control (mortality, anti-feeding effect, growth inhibition)
Method: (§2) Spodoptera littoralis (Egyptian Cotton Leaf Worm)
Cotton leaf discs were placed onto agar in 24-well microtiter plates and sprayed with aqueous test solutions prepared from 10,000 ppm DMSO stock solutions. After drying the leaf discs were infested with five L1 larvae. The samples were assessed for mortality, anti-feeding effect, and growth inhibition in comparison to untreated samples 3 days after infestation. Control of Spodoptera littoralis by a test sample is given when at least one of the categories mortality, anti-feedant effect, and growth inhibition is higher than the untreated sample.

[5] = system: Tetranychus urticae (Two-spotted Spider Mite); experiment: Tetranychus urticae feeding/contact activity (Example B10); conditions: foliar, 192 h
Method: Tetranychus urticae (Two-spotted Spider Mite): Feeding/Contact Activity
Bean leaf discs on agar in 24-well microtiter plates were sprayed with aqueous test solutions prepared from 10,000 ppm DMSO stock solutions. After drying the leaf discs were infested with a mite population of mixed ages. The samples were assessed for mortality on mixed population (mobile stages) 8 days after infestation.

[6] = system: Myzus persicae (Green Peach Aphid); experiment: Myzus persicae feeding/contact activity (Example B5); conditions: foliar, 144 h, application rate of 200 ppm, sunflower leaf discs, aphid population of mixed ages, 6 days after infestation
Method: Myzus persicae (Green Peach Aphid): Feeding/Contact Activity
Sunflower leaf discs were placed onto agar in a 24-well microtiter plate and sprayed with aqueous test solutions prepared from 10,000 ppm DMSO stock solutions. After drying, the leaf discs were infested with an aphid population of mixed ages. The samples were assessed for mortality 6 days after infestation.

[7] = system: Frankliniella occidentalis (Western Flower Thrips); experiment: Frankliniella occidentalis feeding/contact activity (Example B4); conditions: foliar, 168 h, application rate of 200 ppm, sunflower leaf discs, population of mixed ages, 7 days after infestation
Method: Frankliniella occidentalis (Western Flower Thrips): Feeding/Contact Activity
Sunflower leaf discs were placed on agar in 24-well microtiter plates and sprayed with aqueous test solutions prepared from 10,000 DMSO stock solutions. After drying the leaf discs were infested with a Frankliniella population of mixed ages. The samples were assessed for mortality 7 days after infestation.

[8] = system: Spodoptera littoralis (Egyptian Cotton Leaf Worm); experiment: Spodoptera littoralis, uptake by lettuce roots from agar (Example B9); conditions: 144 h, test rate of 12.5 ppm, lettuce grown on treated agar, eggs, 6 days after infestation, read-out: effect in at least one of the three categories (mortality, anti-feeding, or growth inhibition)
Text: as §2
Test compounds were applied by pipette from 10,000 ppm DMSO stock solutions into 24-well plates and mixed with agar. Lettuce seeds were placed onto the agar and the multi well plate was closed by another plate which contained also agar. After 7 days the compound was absorbed by the roots and the lettuce grew into the lid plate. The lettuce leaves were then cut off into the lid plate. Spodoptera eggs were pipetted through a plastic stencil onto a humid gel blotting paper and the lid plate was closed with it. The samples were assessed for mortality, anti-feedant effect and growth inhibition in comparison to untreated samples 6 days after infestation.

[9] = system: Bemisia Tabaci (Cotton White Fly); experiment: Bemisia tabaci feeding/contact activity (Example B1); conditions: foliar, 144 h, application rate of 200 ppm, cotton leaf discs, adult white flies, 6 days after incubation
Method: Bemisia Tabaci (Cotton White Fly): Feeding/Contact Activity
Cotton leaf discs were placed on agar in 24-well microtiter plates and sprayed with aqueous test solutions prepared from 10,000 ppm DMSO stock solutions. After drying the leaf discs were infested with adult white flies. The samples were checked for mortality 6 days after incubation.

[10] = system: Myzus persicae (Green Peach Aphid); experiment: Myzus persicae systemic activity (Example B6); conditions: 144 h, test rate of 24 ppm, roots of pea seedlings in test solution, 6 days
Method: Myzus persicae (Green Peach Aphid): Systemic Activity
Roots of pea seedlings infested with an aphid population of mixed ages were placed directly into aqueous test solutions prepared from 10,000 DMSO stock solutions. The samples were assessed for mortality 6 days after placing seedlings into test solutions.

CCSc1cc2ccccc2cc1-c1nc2cc(C(F)(F)F)n(CC)c(=O)c2n1C [Compound A1, 5-ethyl-2-(3-ethylsulfanyl-2-naphthyl)-3-methyl-6-(trifluoromethyl)-3aH-imidazo[4,5-c]pyrid in-4-one]
≥ 80%: percent effect (mortality or growth inhibition) at 200 ppm [1] | percent effect (mortality or growth inhibition) at 200 ppm [2] | percent effect (mortality or growth inhibition) at 200 ppm [3] | mortality at 200 ppm [4]

CCn1c(C(F)(F)F)cc2nc(-c3cc4ccccc4cc3S(=O)(=O)CC)n(C)c2c1=O [Compound A2, 5-ethyl-2-(3-ethylsulfonyl-2-naphthyl)-3-methyl-6-(trifluoromethyl)-6H-im idazo[4,5-c]pyridin-4-one]
≥ 80%: mortality at 200 ppm [5] | mortality at 200 ppm [6] | percent effect (mortality or growth inhibition) at 200 ppm [1] | mortality at 200 ppm [7] | percent effect (mortality or growth inhibition) at 200 ppm [2] | percent effect (mortality or growth inhibition) at 200 ppm [3] | percent effect (mortality, anti-feeding or growth inhibition) at 12.5 ppm [8] | mortality at 200 ppm [4]

CCSc1cc2ccccc2nc1-c1nc2cc(C(F)(F)F)n(CC)c(=O)c2n1C [Compound A3, 5-ethyl-2-(3-ethylsulfanyl-2-quinolyl)-3-methyl-6-(trifluoromethyl)-3aH-imidazo[4,5-c]pyridin-4-one]
≥ 80%: mortality at 200 ppm [6] | percent effect (mortality or growth inhibition) at 200 ppm [1] | percent effect (mortality or growth inhibition) at 200 ppm [2] | mortality at 200 ppm [4]

CCSc1cc2c(cc1-c1nc3cc(C(F)(F)F)n(CC)c(=O)c3n1C)nc(C(F)(F)F)n2C [Compound A5, 5-ethyl-2-[6-ethylsulfanyl-1-methyl-2-(trifluoromethyl)benzimidazol-5-yl]-3-methyl-6-(trifluoromethyl)imidazo[4,5-c]pyridin-4-one]
≥ 80%: percent effect (mortality or growth inhibition) at 200 ppm [3] | mortality at 200 ppm [4]

CCn1c(C(F)(F)F)cc2nc(-c3cc4nc(C(F)(F)F)n(C)c4cc3S(=O)(=O)CC)n(C)c2c1=O [Compound A6, 5-ethyl-2-[6-ethylsulfonyl-1-methyl-2-(trifluoromethyl)benzimidazol-5-yl]-3-methyl-6-(trifluoromethyl)imidazo[4,5-c]pyridin-4-one]
≥ 80%: mortality at 200 ppm [6] | percent effect (mortality or growth inhibition) at 200 ppm [1] | mortality at 200 ppm [7] | percent effect (mortality or growth inhibition) at 200 ppm [3] | mortality at 200 ppm [9] | percent effect (mortality, anti-feeding or growth inhibition) at 12.5 ppm [8] | mortality at 24 ppm [10] | mortality at 200 ppm [4]

CCn1c(C(F)(F)F)cc2nc(-c3cc4ccncc4cc3S(=O)(=O)CC)n(C)c2c1=O [Compound A8, 5-ethyl-2-(7-ethylsulfonyl-6-isoquinolyl)-3-methyl-6-(trifluoromethyl)imidazo[4,5-c]pyridin-4-one]
≥ 80%: percent effect (mortality or growth inhibition) at 200 ppm [1] | percent effect (mortality or growth inhibition) at 200 ppm [2] | percent effect (mortality or growth inhibition) at 200 ppm [3] | mortality at 200 ppm [4]

CCn1c(C(F)(F)F)cc2nc(-c3cc4cc[n+]([O-])cc4cc3S(=O)(=O)CC)n(C)c2c1=O [Compound A9, 5-ethyl-2-(7-ethylsulfonyl-2-oxido-isoquinolin-2-ium-6-yl)-3-methyl-6-(trifluoromethyl)imidazo[4,5-c]pyridin-4-one]
≥ 80%: percent effect (mortality or growth inhibition) at 200 ppm [1] | mortality at 24 ppm [10] | mortality at 200 ppm [4]
